Patent US5304687A, “Morpholinyl derivatives of doxorubicin and process for their preparation” (priority 1989, dated 1994)
In brackets after ≈: the same amount, converted by molar mass. Like-named read-outs stand apart in the source and are kept apart here.

What was measured:
P388 Leukemia (Schabel) = assay: Effect on sensitive P388 leukemia (Schabel) in vitro (treatment 1 hr); assay type: cell-based; conditions: Mus musculus, read-out: IC50 (concentration inhibiting 50% of cellular survival), P388
From the text: (§1) Effect of A4 on sensitive and Doxorubicin-resistant P388
(§2) Leukemia (Schabel) "in vitro" (treatment 1 hr).
(§3) ^c IC50 = concentration inhibiting 50% of cellular survival.

LoVo = assay: Colony assay test against LoVo cells in vitro (treatment for 4 hrs); assay type: cell-based; conditions: Homo sapiens, read-out: IC50 (concentration inhibiting 50% of colony growth), LoVo
From the text: The compounds have been tested in several experimental system in order to ascertain their cytotoxicity and antitumor activity in experimental animals in comparison with parent Doxorubicin. The new anthracyclines result more cytotoxic than the parent drug on LoVo and LoVo Doxorubicin-resistant cell line (LoVo/Dx), Table 1, and are active "in vivo" against doxorubicin-resistant cell lines.
(§4) Colony assay test against LoVo and LoVo/Dx resistant cells
(§5) "in vitro" (treatment for 4 hrs)
(§6) ^a IC50 = concentration inhibiting 50% of colony growth

[1] = test system: Doxorubicin-resistant P388 Leukemia (Schabel) (P388/Dx); assay: Effect on Doxorubicin-resistant P388 leukemia (Schabel) in vitro (treatment 1 hr); assay type: cell-based; conditions: read-out: IC50 (concentration inhibiting 50% of cellular survival), P388/Dx
From the text: as §1, §2, §3

LoVo/Dx resistant cells = assay: cells; assay type: cell-based; conditions: for IC50: read-out: IC50 (concentration inhibiting 50% of colony growth), LoVo/Dx; for R.I. = Resistance Index = (IC50 LoVo/Dx)/(IC50 LoVo): LoVo/Dx vs LoVo
From the text: as §4, §5, §6
^b R.I. = Resistance Index = (IC50 LoVo/Dx)/(IC50 LoVo)

[2] = Effect on murine mammary carcinoma, iv and oral route; assay type: in vivo; conditions: mouse, in vivo, read-out: O.D. = Optimal Dose: maximally tollerated dose
From the text: (§7) ^c O.D. = Optimal Dose: maximally tollerated dose.
(§8) Effect of A4 on murine mammary carcinoma.
(§9) ^f iv q4dx4 = treatment iv every four days for four times
(§10) ^g po q4dx4 = oral treatment every four days for four times

murine mammary carcinoma = assay: as above; assay type: in vivo; conditions: for Tumor Inhibition %: at O.D.
From the text: as §7, §8, §9, §10

in vivo [3] = conditions: mouse, in vivo, iv
From the text: as §7
(§11) ^d T/C % = Median survival time of treated mice over median survival
(§12) time of controls × 100.

[4] = test system: Doxorubicin-resistant P38B Schabel's Leukemia; assay: in vivo; conditions: BDF1 mice, P388/Dx Schabel (10^2 cell/mouse), iv on day 1, at O.D.
From the text: as §7, §11, §12

[5] = test system: mammary human carcinoma (MX1); assay: Effect on mammary human carcinoma (MX1), iv and oral route; assay type: in vivo; conditions: at O.D.
From the text: as §7
(§13) Effect of A4 on mammary human carcinoma (MX1).
(§14) ^h iv q7dx3 = treatment iv every seven days for three times
(§15) ^i po q7dx3 = oral treatment every seven days for three times

[6] = as above; assay type: in vivo; conditions: in vivo, read-out: O.D. = Optimal Dose: maximally tollerated dose
From the text: as §7, §13, §14, §15

in vivo [7] = conditions: mouse, in vivo, iv; remark: listed apart in the source
Method: (§16) The primary screening "in vivo" was carried out in BDF1 mice bearing P388 Doxorubicin-resistant Johnson's leukemia (P388/Dx) (10^2 cell/mouse). The drugs were administered iv on day 1 after tumor inoculation.
as §7, §11, §12

[8] = test system: Doxorubicin-resistant P388 Johnson's Leukemia (P388/Dx); assay: in vivo; conditions: BDF1 mice bearing P388/Dx Johnson (10^2 cell/mouse), iv on day 1, at O.D.
Method: as §16, §7, §11, §12

[9] = iv q4dx4 (iv every four days for four times)
[10] = po q4dx4 (oral every four days for four times)
[11] = iv q7dx3 (iv every seven days for three times)
[12] = po q7dx3 (oral every seven days for three times)

Which IC50 (P388 Leukemia (Schabel); P388, 1 h) does the source give for `COc1cccc2c1C(=O)c1c(O)c3c(c(O)c1C2=O)C[C@@](O)(C(=O)CO)C[C@@H]3O[C@H]1C[C@H](N2CCO[C@H](OC)C2)[C@H](O)[C@H](C)O1` [Compound A4, 3'-deamino-3'-(2"(S)-methoxy-4"-morpholinyl)-doxorubicin] here?
Its IC50 is 0.0076 µg/mL (≈ 0.0118 µM).

What about the IC50 (LoVo; 4 h) of the same molecule?
Its IC50 is 0.0087 µg/mL (≈ 0.0135 µM).

What about the IC50 ([1]; P388/DX, 1 h) of the same molecule?
Its IC50 is 0.0243 µg/mL (≈ 0.0378 µM).

And the IC50 (LoVo/Dx resistant cells; LoVo/DX, 4 h)?
Its IC50 is 0.0317 µg/mL (≈ 0.0493 µM).

And the “R.I. = Resistance Index = (IC50 LoVo/Dx)/(IC50 LoVo)” value (“R.I. = Resistance Index =” below) (LoVo/Dx resistant cells; treatment for 4 hrs)?
The value was 3.6.

What about the MTD [2, 9] of the same molecule?
The MTD was 0.065 mg/kg.

And the MTD [2, 10]?
Its MTD is 0.1 mg/kg.

And the “Tumor Inhibition %” value (murine mammary carcinoma; [9])?
The value was 94%.

And the “Tumor Inhibition %” value (murine mammary carcinoma; [10])?
Its value is 97%.

What about the MTD (in vivo [3]) of the same molecule?
The MTD was 0.09 mg/kg.

And the “T/C % = median survival time of treated mice over median survival time of controls × 100” value (shortened to “T/C % = median survival time”) [4]?
The value was 153%.

What about the “Tumor Inhibition %” value [5, 11] of the same molecule?
The value was 98%.

What about the “Tumor Inhibition %” value [5, 12] of the same molecule?
The value was 99%.

What about the MTD [6, 11] of the same molecule?
The MTD was 0.05 mg/kg.

What about the MTD [6, 12] of the same molecule?
Its MTD is 0.13 mg/kg.

What about the MTD (in vivo [7]) of the same molecule?
Its MTD is 0.09 mg/kg.

And the “T/C % = median survival time” value [8]?
The value was 250%.

With `COc1cccc2c1C(=O)c1c(O)c3c(c(O)c1C2=O)C[C@@](O)(C(=O)CO)C[C@@H]3O[C@H]1C[C@H](N2CCO[C@@H](OC)C2)[C@H](O)[C@H](C)O1` [Compound A5, 3'-deamino-3'-(2"(R)-methoxy-4"-morpholinyl)-doxorubicin] as the molecule, how does the IC50 (LoVo; 4 h) read?
The IC50 was 0.0065 µg/mL (≈ 0.0101 µM).

What about the IC50 (LoVo/Dx resistant cells; LoVo/DX, 4 h) of the same molecule?
The IC50 was 0.0401 µg/mL (≈ 0.0623 µM).

And the “R.I. = Resistance Index =” value (LoVo/Dx resistant cells; treatment for 4 hrs)?
Its value is 6.1.

What about the MTD (in vivo [7]) of the same molecule?
The MTD was 0.13 mg/kg.

And the “T/C % = median survival time” value [8]?
The value was 244%.

For `COc1cccc2c1C(=O)c1c(O)c3c(c(O)c1C2=O)C[C@@](O)(C(=O)CO)C[C@@H]3O[C@H]1C[C@H](N)[C@H](O)[C@H](C)O1` [Doxorubicin, doxorubicin], which IC50 (P388 Leukemia (Schabel); sensitive P388 (Schabel), in vitro, treatment 1 hr) is on record?
The IC50 was 0.0527 µg/mL (≈ 0.097 µM).

And the IC50 (LoVo; in vitro, treatment for 4 hrs)?
The IC50 was 0.0488 µg/mL (≈ 0.0898 µM).

And the IC50 ([1]; P388/Dx (Schabel), in vitro, treatment 1 hr)?
Its IC50 is 4 µg/mL (≈ 7.36 µM).

What about the “R.I. = Resistance Index =” value (LoVo/Dx resistant cells; treatment for 4 hrs) of the same molecule?
Its value is 52.6.

What about the IC50 (LoVo/Dx resistant cells; LoVo/Dx, in vitro, treatment for 4 hrs) of the same molecule?
The IC50 was 2.55 µg/mL (≈ 4.7 µM).

What about the “O.D. = Optimal Dose: maximally tollerated dose” value (murine mammary carcinoma; [9]) of the same molecule?
The value was 5.85 mg/kg.

What about the “Tumor Inhibition %” value (murine mammary carcinoma; [9]) of the same molecule?
Its value is 99%.

What about the “T/C % = median survival time” value [4] of the same molecule?
Its value is 100%.

What about the “Tumor Inhibition %” value [5, 11] of the same molecule?
Its value is 72%.

What about the MTD [6, 11] of the same molecule?
Its MTD is 6 mg/kg.

What about the “T/C % = median survival time” value [8] of the same molecule?
The value was 86%.
